This note sets out measurements from paper PMC6327999, “Hydroxyl-substituted double Schiff-base condensed 4-piperidone/cyclohexanones as potential anticancer agents with biological evaluation” (Journal of Enzyme Inhibition and Medicinal Chemistry, 2019).

Structures are written as SMILES.

One data set deals with HepG2 xenografts. In words: In vivo antitumor efficacy, HepG2-bearing nude mice. More on the design: species or system Balb/c nude mice. As for the experimental part:
(§1) The antitumor effect was investigated on the seven-week-old female Balb/c nude mice (n = 30) weighing 19–21 grams (Shanghai Laboratory Animal Center). Briefly, 0.2 mL HepG2 cells (1 × 10^7/mL) were inoculated subcutaneously into the alar left of each mouse. On the third day after the inoculation, the HepG2-bearing mice were randomly divided into five groups (n = 6/group) and administrated the according drug or solvent. […] The control group was administrated of saline as negative control. The body weight and tumor volumes calculation were recorded from the day of treatment, and the tumor volumes were calculated using the following equation: tumor volume = length × (width)^2 × π/6. Animal experiments were reviewed and approved by the Binzhou Medical University Experimental Animal Committee.

The next data set relates to HepG2 cells. In words: Apoptosis assay, Annexin V-FITC/PI flow cytometry. The format is cell-based, human. The following applies: 5c treatment for 24 hours, 1.0, 2.0, 4.0 µM, early and late apoptosis. Here is the method:
HepG2 cells were plated at a density of 1 × 10^5 cells/well in 24-well plates. […] One hundred microliters of such solution (1 × 10^5 cells) was mixed with 5 µL of Annexin V-FITC and 5µL of Propidium Iodide (BD Biosciences, San Jose, CA, USA) according to the manufacturer’s instruction. The mixed solution was gently vortexed and incubated in the dark at room temperature for 15 minutes. Four hundred microliters of 1X binding buffer were then added to each tube and cell apoptosis analysis was performed by flow cytometry (BD FACS Calibur) within 1 hour.

The nature of data set [1]: Body weight of HepG2-bearing mice. In kind it is in vivo, Balb/c nude mice. The following applies: measured every 2 days during treatment. Here is the method: as §1
The next data set concerns Bcl-2. In words: Western blot, Bcl-2 expression. In kind it is cell-based, human. The following applies: HepG2, 3 h, 1.0, 2.0, 4.0 µM, vs negative control. As for the experimental part: The HepG2 cell lines were treated with different dose of by BAP 5c (1.0, 2.0, 4.0 µM, respectively) for 3 hours, then washed twice with PBS, and lysed in ice-cold modified RIPA buffer containing PMSF (RIPA:PMSF = 100:1; the ultimate density of PMSF is 1.0 mM). The lysates were kept for 30 minutes on the ice, and then centrifuged for 15 min at 12000 rpm/min at 4 °C and the supernatant was collected. The proteins were boiled at 95 °C at 5 min with loading buffer (the volume ratio of protein and the loading buffer is 4:1). Each 50 µg protein of cell lysates were separated by 10% SDS-PAGE gel electrophoresis. The proteins were then transferred onto polyvinylidene fluorides membrane. The membranes were probed with antibodies and visualised using an enhanced chemiluminescence (ECL) detection kit according to the manufacturer instruction.
(In western blotting, separated proteins are transferred to a membrane and probed.)

Data set [2] relates to human cervical carcinoma cells (HeLa). In words: Cytotoxicity, MTT assay, HeLa. In kind it is cell-based. In a few lines:
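Cells seeded 1 × 10^4/well for 24 h, then exposed to serial compound concentrations (50–0.01 µg/mL) for 24 h at 37 °C, 5% CO2; LO2, K562, HeLa, SGC7901 grown in 1640 medium with 10% FBS. MTT 4 h, formazan in DMSO, OD 570 nm; IC50 from triplicate viability versus untreated controls.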
Background: Formazan colour is commonly taken as a measure of viable cells.

Take `O=C1/C(=C/c2cc(/N=C/c3ccc(O)c(O)c3O)ccc2F)CNC/C1=C\c1cc(/N=C/c2ccc(O)c(O)c2O)ccc1F` [5c]: the tumor growth inhibition entry with HepG2 xenografts (1.0 mg/kg/d i.p. for 20 days) was “light inhibitory activity”; in the data set with HepG2 xenografts (10 mg/kg/d i.p. for 20 days), “significantly inhibited the tumor growth”. Further, the HepG2 cells apoptosis entry with HepG2 cells is “dose-dependent apoptosis”. For the same compound, in data set [1], the body weight change entry is “no apparent change in body weight”. Further, the “expression level of Bcl-2” value in the data set on Bcl-2 is “down-regulate the expression level of Bcl-2”. The compound further came in with an IC50 in data set [2] (Homo sapiens, HeLa, MTT, 24 hours) of 1.5 ± 0.3 µM. Moreover, the “HeLa SI” value in data set [2] (quotient of the IC50 values towards nonmalignant LO2 cells) is on record as 9.8.

As a reminder, the IC50 is the concentration that inhibits the measured activity by half.
